Data published in patent US20240376114A1, “NUCLEAR TRANSPORT MODULATORS AND USES THEREOF” (Karyopharm Therapeutics Inc., priority 2011, published 2024).
Counter-ions that a name gives are not always drawn.

Tests used:
[1] = target: T1, CRM1 (Homo sapiens (Human), UniProt O14980); assay: RevGFP assay: inhibition of CRM1-mediated nuclear export; type: cell-based; settings: U2OS-RevGFP cells, about 1 hr incubation; read-out: Rev Export [IC50]
Description: The ability of exemplary compounds of the invention to inhibit CRM1-mediated nuclear export was assessed in a RevGFP assay. Rev is a protein from human immunodeficiency virus type 1 (HIV-1) and contains a nuclear export signal (NES) in its C-terminal domain and a nuclear localization signal (NLS) in its N-terminal domain. Nuclear export of Rev protein is dependent on the classical NES/CRM1 pathway (Neville et al. 1997).
In this assay, U2OS-RevGFP cells were seeded onto clear-bottomed, black, 384-well plates the day before the experiment. Compounds were serially diluted 1:2 in DMEM, starting from 40 μM in a separate, 384-well plate, and then transferred onto the cells. The cells were incubated with compound for about 1 hr before fixation with 3.7% formaldehyde and nuclei staining with Hoechst 33258. The amount of GFP in cell nuclei was measured and the IC50 of each compound was determined (Kau et al. 2003). […]

[2] = CellTiter 96 AQueous One Solution (MTS) cell proliferation assay; type: cell-based; settings: human, MM.1S multiple myeloma cells; MM.1S cells, 72 h treatment; read-out: Cytotoxicity [EC50]
Text: The CellTiter 96® AQueous One Solution cell proliferation assay (Promega) was used on MM.1S multiple myeloma cell line to study the cytotoxic and cytostatic properties of the compounds. The assay is based on the cleavage of the tetrazolium salt, MTS, in the presence of an electron-coupling reagent PES (phenazine ethosulfate). The MTS tetrazolium compound is bioreduced by cells into a colored formazan product that is soluble in tissue culture medium. This conversion is presumably accomplished by NADPH or NADH produced by dehydrogenase enzymes in metabolically active cells. Assays are performed by adding a small amount of the CellTiter 96® AQueous One solution reagent directly to culture wells, incubating for 1-4 hours and then recording the absorbance at 490 nm with a 96-well plate reader.
The cells were seeded at 5×10^3 to 1.5×10^4 cells (depending on cell type) in each well of a 96-well plate in 100 μL of fresh culture medium and adherent cells were allowed to attach overnight. The stock solutions of the compounds were diluted in cell culture medium to obtain eight concentrations of each drug, ranging from 1 nM to 30 μM and DMSO at less than 1% v/v was used as a negative control. The resulting drug solutions were transferred onto the cells. After 72 h of treatment, 20 μl of CellTiter 96® AQueous reagent was added into each well of the 96-well assay plates and the plate was incubated at 37° C. for 1-4 hours in a humidified, 5% CO2 atmosphere. Then the absorbance of each well was recorded at 490 nm using a 96-well plate reader. In most cases, the assay was performed in triplicate and the results were presented as half maximal inhibitory concentration (IC50). Optical density versus compound concentration was plotted and analyzed using non-linear regression equations (IDBS XLfit) and the IC50 for each compound was calculated.

[3] = Pharmacokinetic (PK) assay, plasma AUC; type: in vivo; settings: 10 mg/kg, mouse, PO, 10 mpk, read-out: AUCInf hr * ng/mL (mouse, PO, 10 mpk)
Description: Pharmacokinetics (PK) play an increasing role in drug discovery and development. Pharmacokinetics is the quantitative study of the time course of drug absorption, distribution, metabolism and/or excretion. When a drug is administered, it distributes rapidly from its administration site into the systemic blood circulation. One measure of the extent of a therapeutic agent's distribution is the area under the plasma concentration-time curve (AUC), calculated to the last measured concentration (AUCt) and extrapolated to infinity (AUCinf). AUC is thus a useful metric to quantitate drug exposure. AUC. Blood was collected from mice (N=3) to contribute to the total of 10 time points (pre-dose, 5 min, 15 min, 30 min, 1 hour, 2 hours, 4 hours, 8 hours, 12 hours and 24 hours post dose). Mice were bled on a rotating basis, each mouse contributing 3 time points to the blood collection. At the designated time points, animals were anaesthetized under isoflurane, and approximately 110 μL of blood per time point was collected via retro-orbital puncture into pre-cooled K2EDTA (anti-coagulant) tubes. Blood samples were put on wet ice and centrifuged (2000 g, 5 min at 4° C.) to obtain plasma within 30 minutes of sample collection. All samples were stored frozen at approximately −80° C. until analysis. Prior to analysis, samples were mixed with internal standard (dexamethasone) in acetonitrile, vortexed, centrifuged, and supernatant was injected for analysis. Concentration of compounds in plasma was determined using LC-MS-MS instrumentation (API 4000, Triple Quadruple with electrospray ionization; Acuity Ultra Performance Liquid Chromatography column C18, with MeOH and formic acid as organic solvents). AUC values were calculated using WinNonlin Professional 6.2 software package, non-compartmental pharmacokinetic model NCA200.

[4] = Brain to plasma (B:P) ratio determination; type: in vivo; settings: brain and plasma; mouse, PO at 10 mg/kg, 2 hours post-dose
Text: The brain to plasma (B:P) ratio is one method of quantifying the relative distribution of a therapeutic agent in brain tissue to that in circulation and, as such, provides one indication of the brain penetration of a given therapeutic agent. A high brain to plasma ratio is preferred when targeting diseases localized in the central nervous system (CNS), including the brain and the cerebrospinal fluid. However, a lower brain to plasma ratio is generally preferable for non-CNS therapeutic agents to minimize brain penetration and avoid potential side effects caused by unwanted accumulation of the therapeutic agents in the brain and CNS tissue.
Brain to Plasma (B:P) Ratio. […] Following collection, brain tissue was rinsed with cold saline, dried on filter paper, weighed and snap-frozen by placing on dry ice. All samples were stored frozen at approximately −80° C. until analysis. […] Plasma samples were treated with the identical method (except homogenization step) and the concentration of compound in each matrix was calculated based on generated standard curves.

[5] = test system: HCT-116 xenografts; assay: Inhibition of HCT-116 xenografts in vivo
Description: Mice were inoculated on the hind flank with HCT-116 cell line and the HCT-116 xenografts were grown to approximately 150 mm^3, at which time treatment was initiated. Treatment groups were as follows:
50 mg/kg 5-FU IP, days 1-3;
25 mg/kg Compound 1 compound QD×5 SC (low dose);
75 mg/kg Compound 1 compound QD×5 SC (high dose).

[6] = target: T1, CRM1; assay: Immunofluorescence of p21 and p53 localization in HCT-116 cells; type: cell-based; settings: 10 μM, 24 hours
Description: HCT-116 cells were incubated with 10 μM Compound 1 for 24 hours, at which time the cells were fixed and stained with antibodies to p21 or p53, or the DNA stain, DAPI.

[7] = test system: HCT-116 cells; assay: Western blot of p53, p21, PARP in cytoplasmic and nuclear fractions of HCT-116 cells; type: cell-based; settings: 10 μM
Description: HCT-116 cells were incubated with 10 μM Compound 1 for 2, 4, 6, 16, or 24 hours (indicated in FIGS. 2A and 2B as “2+,” 4+,” etc.), or with 10 μM Compound 1 for 22 hours and an additional 1 μM Compound 1 for another 2 hours (indicated in FIGS. 2A and 2B as “22+2+”). At the end of the incubation period, total protein extracts were prepared. Cytoplasmic and nuclear proteins were separated, immunoblotted and reacted with antibodies to p53, p21, full-length (FL) PARP, cleaved PARP and lamin B.

[8] = test system: HCT-116 cells; assay: Immunofluorescence of pRb localization in HCT-116 cells; type: cell-based; settings: 10 μM, 24 hours
Description: HCT-116 cells were incubated with 10 μM Compound 1 for 24 hours, at which time the cells were fixed and stained with antibodies to pRb or DAPI.

[9] = test system: HCT-116 cells; assay: Western blot of pRb and phosphorylated pRb in HCT-116 cells; type: cell-based; settings: 10 μM, more than 6 hours
Description: HCT-116 cells were incubated with 10 μM Compound 1 for 2, 4, 6, 16, or 24 hours (indicated in FIGS. 3A and 3B as “2+,” 4+,” etc.), or with 10 μM Compound 1 for 22 hours and an additional 1 μM Compound 1 for another 2 hours (indicated in FIGS. 3A and 3B as “22+2+”). At the end of the incubation period, total protein extracts were prepared. Cytoplasmic and nuclear proteins were separated, immunoblotted and reacted with antibodies to phosphorylated pRb (pRb^phos), pRb, actin and lamin B.

[10] = test system: HCT-116 cells; assay: Immunofluorescence of APC and IκB localization in HCT-116 cells; type: cell-based; settings: 10 μM, 24 hours
Description: HCT-116 cells were incubated with 10 μM Compound 1 for 24 hours, at which time the cells were fixed and stained with antibodies to APC or IκB, or DAPI.

[11] = test system: splenocytes and circulating CD8 cells; assay: FACS of immune cells at day 26 of the EAE model; type: in vivo, mouse; settings: day 26, high dose (75 mg/kg)
Text: On day 26, a subset of mice was sacrificed and immune cells were subjected to fluorescence-activated cell sorting (FACS) using standard methods.

[12] = test system: EAE model of multiple sclerosis; settings: 25 mg/kg and 75 mg/kg, oral gavage, 3 days per week

T1 sequence (O14980 whole entry, the tested form may be a part): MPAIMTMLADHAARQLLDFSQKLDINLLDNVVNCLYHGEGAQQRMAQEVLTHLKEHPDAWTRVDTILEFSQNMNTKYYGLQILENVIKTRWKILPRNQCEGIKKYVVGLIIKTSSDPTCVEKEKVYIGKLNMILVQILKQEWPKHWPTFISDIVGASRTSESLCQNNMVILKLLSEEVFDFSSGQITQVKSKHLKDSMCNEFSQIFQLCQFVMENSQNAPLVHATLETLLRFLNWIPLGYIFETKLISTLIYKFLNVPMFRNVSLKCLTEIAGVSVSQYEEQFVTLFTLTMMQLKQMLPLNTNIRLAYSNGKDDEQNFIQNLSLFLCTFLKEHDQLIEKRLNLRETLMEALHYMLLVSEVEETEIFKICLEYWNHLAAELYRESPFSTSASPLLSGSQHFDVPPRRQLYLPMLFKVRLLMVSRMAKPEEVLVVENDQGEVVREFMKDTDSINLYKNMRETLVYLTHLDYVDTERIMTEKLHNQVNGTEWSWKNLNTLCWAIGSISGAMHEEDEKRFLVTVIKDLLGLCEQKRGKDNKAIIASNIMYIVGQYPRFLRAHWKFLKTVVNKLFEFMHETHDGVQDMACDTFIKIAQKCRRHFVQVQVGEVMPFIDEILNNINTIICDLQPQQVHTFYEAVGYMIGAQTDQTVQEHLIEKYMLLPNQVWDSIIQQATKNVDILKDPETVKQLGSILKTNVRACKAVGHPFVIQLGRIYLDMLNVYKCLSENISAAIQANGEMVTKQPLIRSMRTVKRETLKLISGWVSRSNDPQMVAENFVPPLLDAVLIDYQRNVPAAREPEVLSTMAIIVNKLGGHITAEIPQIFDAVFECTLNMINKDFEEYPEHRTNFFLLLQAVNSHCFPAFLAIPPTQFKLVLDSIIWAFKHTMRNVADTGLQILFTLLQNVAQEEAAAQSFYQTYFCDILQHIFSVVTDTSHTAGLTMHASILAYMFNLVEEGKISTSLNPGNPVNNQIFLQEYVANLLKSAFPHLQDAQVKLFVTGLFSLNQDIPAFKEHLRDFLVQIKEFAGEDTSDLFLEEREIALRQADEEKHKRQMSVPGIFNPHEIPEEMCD

SMILES	IC50 [1] [µM]	EC50 at 72 h [2] [µM]	AUC(0-inf) [3] [ng·h/mL]	Kp at 2 h [4]	Tumor growth (tumor volume as percentage of initial volume) ([5]; 25 or 75 mg/kg QDx5 SC, HCT-116 xenograft mice)	Anti-tumor effect compared to 5-FU ([5]; vs 50 mg/kg 5-FU IP days 1-3)	Nuclear export function of CRM1 [6]	Subcellular localization of p21 and p53 [6]	Induction of p21 and p53 (Western blot) ([7]; 2-24 hours)	Induction of apoptosis (PARP decrease, cleaved PARP increase) ([7]; 24 hours)	Nuclear localization of pRb [8]	Phosphorylation state of pRb (Western blot) [9]	Nuclear localization of APC and IκB [10]	Number of splenocytes and circulating CD8 cells (FACS) [11]	EAE clinical score [12]
O=C(/C=C\n1cnc(-c2cc(C(F)(F)F)cc(C(F)(F)F)c2)n1)NC1C2CNCC21 (stereo not drawn) [Compound 56, (Z)—N-(3-azabicyclo[3.1.0]hexan-6-yl)-3-(3-(3,5-bis(trifluoromethyl)phenyl)-1H-1,2,4-triazol-1-yl)acrylamide hydrochloride]	< 1	< 1	–	–	–	–	–	–	–	–	–	–	–	–	–
O=C(/C=C\n1cnc(-c2cc(C(F)(F)F)cc(C(F)(F)F)c2)n1)N1CC(F)(F)C1 [Compound 1, (Z)-3-(3-(3,5-bis(trifluoromethyl)phenyl)-1H-1,2,4-triazol-1-yl)-1-(3,3-difluoroazetidin-1-yl)prop-2-en-1-one]	–	< 1	12300	5	inhibited tumor growth	superior anti-tumor effects compared to 5-FU	inhibited the nuclear export function of CRM1	both p21 and p53 were concentrated in the nucleus	induces p21 and p53 in both cytoplasmic and nuclear fractions	induces apoptosis in HCT-116 cells after 24 hours	induced nuclear localization of the tumor suppressor gene protein, pRb	induces dephosphorylation of pRb in both cytoplasmic and nuclear fractions	induced the nuclear localization of the tumor suppressor proteins, APC and IκB	modest decrease in the number of splenocytes and circulating CD8 cells	reduced the clinical score in a statistically significant manner
O=C(/C=C/n1cnc(-c2cc(C(F)(F)F)cc(C(F)(F)F)c2)n1)N1CC(F)(F)C1 [Compound 4, (E)-3-(3-(3,5-bis(trifluoromethyl)phenyl)-1H-1,2,4-triazol-1-yl)-1-(3,3-difluoroazetidin-1-yl)prop-2-en-1-one]	< 1	< 1	–	–	–	–	–	–	–	–	–	–	–	–	–
